What was measured:
[1] = system: Postn-Cre+ Nf1fl/fl mouse model of plexiform neurofibroma; test: In vivo drug testing in Nf1-KO mice (plexiform neurofibroma model); conditions: oral gavage, 12 weeks
From the text: The aim of this study was to evaluate the effect of nitroxoline in a mouse model of neurofibromatosis type 1, more specifically a model that develops plexiform neurofibromas. This study is the same used by AstraZeneca for the approval of selumetinib for pNF.
This study uses the Postn-Cre+Nf1^fl/fl mouse model of plexiform neurofibroma. The neurofibromas that arise in these mice faithfully recapitulate human disease (Burks et al. 2019). At 4 months of age when mice (male and female) had established plexiform neurofibromas they were randomised into three treatment groups and administered nitroxoline at 120 mg/kg QD, 120 mg/kg BD or vehicle (10% DMSO in 90% corn oil) via oral gavage. Mice were treated for 12 weeks then sacrificed. Mice were perfused and fixed in 10% neutral buffered formalin.
The whole bodies were decalcified in 5% formic acid, the spinal proximal nerve tree was dissected, and nerve width (including the tumour formed along it) measured via calliper (shown in FIG. 3) across four nerves per mouse. Nerve volume was subsequently calculated using a spheroid calculation: 0.52×(width) 2 w length.
To quantify tumour number, the nerves were processed to paraffin blocks, sectioned, and stained for collagen using Masson's trichrome stain. Tumour number was scored from these slides by a clinician.
Graphs and statistical analysis of data were produced using GraphPad Prism (Ver 9).

[2] = system: NF1−/− (ipNF95.6) immortalized human-derived Schwann cells; test: CellTiter-Glo cell proliferation assay, NF1 deficient Schwann cells; type: cell-based; conditions: 48 hours incubation
From the text: (§1) In this study the efficacy of nitroxoline was investigated and its ability to reduce cellular proliferation, increase apoptosis, and overall cell viability utilizing immortalized wild-type (WT) and NF1 deficient (Nf1^−/−) Schwann cells (SCs). Nf1^−/− SCs have increased survival and proliferation in vitro, consistent with the in vivo phenotypes (Kim H A et al., Mol Cell Biol. 1997; 17 (2): 862-72). The present studies utilize WT (ipn02.3λ) and NF1^−/− (ipNF95.6) immortalized human-derived SC lines. The selectivity of nitroxoline was compared between NF1^−/− and WT cells.
(§2) Cells were treated with serially diluted nitroxoline starting from […] and incubated for 48 hours. After the incubation period, proliferation, viability, and apoptosis assays were performed as described below: • Cell proliferation was assessed using the CellTiter-Glo Assay (Promega) which measures ATP consumption. […] After 10 minutes, the plates were read using a 96-well microplate luminometer. • Cellular apoptosis was assessed using the Caspase-Glo 3/7 kit (Promega). […] After 10 minutes, plates were read using a 96 well luminometer and caspase 3/7 activity was measured.

[3] = system: WT (ipn02.3λ) immortalized human-derived Schwann cells; test: CellTiter-Glo cell proliferation assay, WT Schwann cells; type: cell-based; conditions: 48 hours incubation
From the text: as §1, §2

[4] = system: WT (ipn02.3λ) immortalized human-derived Schwann cells; test: Caspase-Glo 3/7 apoptosis assay, WT Schwann cells; type: cell-based; conditions: 48 hours incubation, caspase 3/7 activity
From the text: as §1, §2

[5] = system: NF1−/− (ipNF95.6) immortalized human-derived Schwann cells; test: Caspase-Glo 3/7 apoptosis assay, NF1 deficient Schwann cells; type: cell-based
From the text: as §1, §2

**Q.** How did the “proximal nerve volume compared to vehicle treated control mice” value ([1]; 120 mg/kg BD) turn out when `O=[N+]([O-])c1ccc(O)c2ncccc12` [Nitroxoline, 5-nitroquinolin-8-ol] was run?
**A.** lower proximal nerve volumes

**Q.** What about the “proximal nerve volume compared to vehicle treated control mice” value ([1]; 120 mg/kg QD) of the same compound?
**A.** lower proximal nerve volumes

**Q.** And the “tumour number along the nerves compared to vehicle controls” value ([1]; nitroxoline treated mice (120 mg/kg QD or BD))?
**A.** a reduction in tumour number

**Q.** What about the “concentration at which antiproliferative effect was observed” value [2] of the same compound?
**A.** greater than 1 μM

**Q.** What about the “concentration at which antiproliferative effect was observed” value [3] of the same compound?
**A.** greater than 1 μM

**Q.** What about the “concentration at which induction of apoptosis was evident” value [4] of the same compound?
**A.** greater than 3 UM

**Q.** And the “concentration at which induction of apoptosis was evident” value ([5]; Nf1−/− Schwann cells, 48 hours incubation, caspase 3/7 activity)?
**A.** greater than 3 UM

**Q.** What about the “magnitude of the increase in apoptosis in Nf1−/− SC compared with WT SC” value ([5]; at concentrations greater than 10 μM, 48 hours) of the same compound?
**A.** significantly greater

Reference: patent US20250000852A1, “NITROXOLINE FOR USE IN THE TREATMENT OR PREVENTION OF A PLEXIFORM NEUROFIBROMA” (HEALX LTD, priority 2021, published 2025)
